Test results published in US6866845B1, “Compositions and methods for the treatment of sepsis” (The Regents of the University of Michigan, priority 1999, dated 2005).
Where no end group is shown, it is not given here.

Assays:
human neutrophils [1] = experiment: chemotaxis of human neutrophils in chemotactic chambers; assay type: cell-based; conditions: for chemotactic activity of KLH conjugate compared to C5a peptide: calculated synthetic peptide concentration 100 nM, peptide:KLH approximately 3:1; for chemotactic response to peptide in medium alone: 1 μM peptide; for reduction in the chemotactic responses of neutrophils to human C5a: 1 μM peptide with 10 μM human C5a
Protocol: This Example describes the ability of certain synthetic peptides representative of regions of human C5a peptide to reduce the chemotactic response of human neutrophils to human C5a peptide. Human neutrophils were isolated from human blood by traditional Ficoll-Hypaque sedimentation techniques. Using standardized methodology, neutrophils (5×10^6/ml) labeled with 1 μg/ml BCECF [2′,7′-(2 carboxyethyl)-5-(and-6)-carboxyfluroscein, acetoxymethy ester) at 37° C. for 30 min, were applied to the upper compartments of […] The two compartments were separated by a membrane with pore sizes of 3 μm. Neutrophil chemotactic responses were quantitated by cytofluorometry.
[…] Peptide A (SEQ ID NO:4) represents residues 1-20 of human C5a peptide, peptide M (SEQ ID NO: 5) represents residues 21-40 of human C5a peptide, and peptide C (SEQ ID NO:6) represents residues 55-74 of human C5a peptide.
This Example describes neutrophil chemotactic activity of peptides A, M, and C linked to keyholelimpet hemocyanin (KLH) employing the chemotactic assay described in Example 7. The peptide:KLH molar ratios employed were approximately 3:1. […]

human neutrophils [2] = experiment: competition with 125I-hC5a peptide binding to human neutrophils; conditions: ratio of peptide to labelled hC5a 10:1
Excerpt: This Examples describes certain peptides which are able to antagonize the ability of human C5a peptide to bind to human neutrophils. Three different peptides, labelled A, M, and C, were used to antagonize the binding of ^125I-hC5a peptide to human neutrophils. Again, peptide A (SEQ ID NO:4) represents residues 1-20 of human C5a peptide, peptide M (SEQ ID NO: 5) represents residues 21-40 of human C5a peptide, and peptide C (SEQ ID NO:6) represents residues 55-74 of human C5a peptide.
Human peripheral blood neutrophils (1×10^7 cells/ml) were incubated in Hank's buffered saline plus 0.1% bovine serum albumin with both ^123]-labelled hC5a peptide (300 μCi/nmol) and either peptide A, M, or C, in a final volume of 200 μl in a microfuge tube. The ratio of the shorter peptides (A, M, or C) to ^1251]-labelled hC5a peptide was 10:1. After incubation, cell suspension were layered over a 20% sucrose gradient and were sedimented by centrifugation at 11,000 g. The tubes were then frozen on dry ice, followed by cutting the tips containing the pellet. Cell-bound label was then determined by placing the tips in a gamma counter.

human neutrophils [3] = experiment: H2O2 production of human neutrophils stimulated by PMA; assay type: cell-based; conditions: for inhibition of PMA-elicited H2O2 response: neutrophils pretreated with peptide, then PMA
Excerpt: This Example describes the effect of human C5a peptide, and certain shorter synthetic human C5a peptides A, M, or C, to inhibit the H2O2 production of human neutrophils stimulated by phorbol myristate acetate (PMA). Again, peptide A (SEQ ID NO:4) represents residues 1-20 of human C5a peptide, peptide M (SEQ ID NO: 5) represents residues 21-40 of human C5a peptide, and peptide C (SEQ ID NO:6) represents residues 55-74 of human C5a peptide. Human neutrophils were isolated and then pretreated with C5a peptide or one of the shorter synthetic peptides (A, M, or C). Cells were then stimulated with PMA and the production of H2O2 was measured.

[4] = target: human peripheral blood neutrophils (surface sites that bind human C5a peptide) (human) (UniProt P21730); experiment: cell-based or functional assay
[5] = target: rat C5a peptide (full length) (rat) (UniProt P08650); experiment: flow cytometry on rat blood neutrophils, control stain
Sequence of UniProt P08650 (P08650 679-755 limits assumed): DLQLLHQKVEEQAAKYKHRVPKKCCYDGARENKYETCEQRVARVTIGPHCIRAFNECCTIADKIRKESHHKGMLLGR

Sequence of UniProt P21730 (P21730 whole entry): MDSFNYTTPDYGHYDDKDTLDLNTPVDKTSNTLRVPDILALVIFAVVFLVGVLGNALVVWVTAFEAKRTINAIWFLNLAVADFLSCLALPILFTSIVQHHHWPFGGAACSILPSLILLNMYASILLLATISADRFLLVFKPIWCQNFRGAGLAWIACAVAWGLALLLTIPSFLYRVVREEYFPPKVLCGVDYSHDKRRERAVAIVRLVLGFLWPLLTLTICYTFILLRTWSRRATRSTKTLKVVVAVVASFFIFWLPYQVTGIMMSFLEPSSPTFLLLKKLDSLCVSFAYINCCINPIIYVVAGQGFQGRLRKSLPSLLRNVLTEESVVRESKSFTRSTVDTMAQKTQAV

Row | Molecule | chemotactic activity of KLH conjugate compared to C5a peptide (human neutrophils [1]) | reducing the binding of hC5a peptide to human neutrophils (human neutrophils [2]) | inhibition of PMA-elicited H2O2 response (human neutrophils [3]) | chemotactic response to peptide in medium alone (human neutrophils [1]) | reduction in the chemotactic responses of neutrophils to human C5a (human neutrophils [1]) | also measured
1 | A peptide KLH conjugate: peptide A (SEQ ID NO:4) linked to keyhole limpet hemocyanin, peptide:KLH approximately 3:1 (MLQKKIEEIAAKYKHSVVKK; also: linked to keyhole limpet hemocyanin, peptide:KLH ~3:1) | most chemotactically active | – | – | – | – | –
2 | C peptide conjugate: peptide C (SEQ ID NO:6) linked to keyhole limpet hemocyanin, peptide:KLH approximately 3:1 (CVVASQLRANISHKDMQLGR; also: linked to keyhole limpet hemocyanin, peptide:KLH ~3:1) | almost as active | – | – | – | – | –
3 | CCYDGASVNNDETCEQRAAR (listed as Homo sapiens) [peptide M, residues 21-40 of human C5a peptide] | – | significantly (p<0.05) competitive | strongest suppression | did not per se induce any chemotactic responses | approximately 20% | –
4 | CVVASQLRANISHKDMQLGR (listed as Homo sapiens) [peptide C, residues 55-74 of human C5a peptide] | – | no statistically significant interference | to varying degrees | did not per se induce any chemotactic responses | approximately 20% | –
5 | M peptide conjugate: peptide M (SEQ ID NO:5) linked to keyhole limpet hemocyanin, peptide:KLH approximately 3:1 (CCYDGASVNNDETCEQRAAR; cysteine pairing not given here; also: linked to keyhole limpet hemocyanin, peptide:KLH ~3:1) | no chemotactic activity | – | – | – | – | –
6 | MLQKKIEEIAAKYKHSVVKK (listed as Homo sapiens) [peptide A, residues 1-20 of human C5a peptide] | – | significantly (p<0.05) competitive | to varying degrees | did not per se induce any chemotactic responses | approximately 20% | –
7 | peptide C (residues 55-74 of human C5a peptide) | – | – | – | – | – | chemotactic responses of neutrophils to human C5a [4]: 20%
8 | preimmune IgG (antibody) | – | – | – | – | – | Mean Channel Fluorescence (binding value) (MCF (mean ± SEM)) [5]: 4.45
9 | MLQKKIEEIAAKYKHSVVKKCCYDGASVNNDETCEQRAARISLGPRCIKAFTECCVVASQLRANISHKDMQLGR (protein, listed as Homo sapiens, full length human complement component C5a peptide) MLQKKIEEIAAKYKHSVVKKCCYDGASVNNDETCEQRAARISLGPRCIKAFTECCVVASQLRANISHKDMQLGR | – | – | inhibitable | – | – | effect on H2O2 production, peptide alone (human neutrophils [3]; without PMA): no effect
